Source: the SangsterLogP compilation

Test: method code SF-AS, from DOI: 10.1016/s0021-9673(00)82338-9
Settings: pH 9.0

SMILES | logD
O=[N+]([O-])c1cncn1CCN1CCOCC1 | 0.07
Cn1c([N+](=O)[O-])cnc1C1CC1 | 1
O=[N+]([O-])c1cnc(C=Cc2ccc3c(c2)OCO3)n1CCO | 2.03
Cn1c([N+](=O)[O-])cnc1COC(N)=O | -0.38
CN1CCN(Cc2ncc([N+](=O)[O-])n2C)CC1 | -0.32
Cn1c([N+](=O)[O-])cnc1C=O | -0.69

The next lines start with the values.

logD | SMILES
-0.7 | Cc1ncc([N+](=O)[O-])n1CC(=O)N1C=CN(C(=O)Cn2c([N+](=O)[O-])cnc2C)C=C1
0.31 | Cc1ncc([N+](=O)[O-])n1CC(O)Cn1c([N+](=O)[O-])cnc1C
-0.03 | Cn1c([N+](=O)[O-])cnc1CO
